According to patent US20260130933A1, “PHARMACEUTICAL COMPOSITION FOR PREVENTION OR TREATMENT OF NEPHROPATHY AND/OR DIABETES MELLITUS, COMPRISING ENAVOGLIFLOZIN” (DAEWOONG PHARMACEUTICAL CO., LTD., priority 2022, published 2026):

Test: Example 3: phase 3 trial, enavogliflozin 0.3 mg vs dapagliflozin 10 mg once a day for 24 weeks added to metformin and gemigliptin in patients with type 2 diabetes (same endpoints, rescue drug)
Type: in vivo, human
Conditions: week 6
Method: 1) when Metformin (≥1,000 mg/Day) was Administered at a Constant Dose for at Least 8 Weeks Prior to Pre-Visit (Pre-Screening) • Metformin (≥1,000 mg/day) and gemigliptin (50 mg/day) were co-administered during the 8-week stabilization period. […] 4) when Metformin (≥1,000 mg/Day) and Gemigliptin (50 mg/Day) were Co-Administered at Constant Doses for at Least 8 Weeks Prior to Pre-Visit (Prescreening) • Without a separate stabilization period, Pre-visit (pre-screening) was Visit 1 (screening).
Subjects who met the inclusion/exclusion criteria continued to receive metformin and gemigliptin while receiving a placebo of the clinical trial drug in a single-blind (subject-blinded) state for a 2-week run-in period.
Here, the randomized subjects were stratified according to the administration therapy (co-administration with two or less agents (one or two agents) or three or more agents) of a conventional hypoglycemic agent (before washout of another hypoglycemic agent) within 24 weeks prior to obtaining written informed consent and by an HbA1c value (<8% or ≥8%) at Visit 1 (screening) measured in the central laboratory.
The randomized subjects were administered two tablets of the clinical trial drug corresponding to each administration group once a day, and then visited the institution at weeks 6, 12, 18, and 24 during the 24-week administration period to conduct efficacy and safety assessments. In addition, during the clinical trial period, they were instructed to exercise regularly and control their diet without changing their daily life patterns.
• 1) Change in HbA1c at week 24 after administration of clinical trial drug compared to Visit 2 (randomization)
• 1) Change in HbA1c at each time point of weeks 6, 12, and 18 after administration of clinical trial drug compared to Visit 2 (randomization) • 2) Change in FPG at each time point of weeks 6, 12, 18, and 24 after administration of clinical trial drug compared to Visit 2 (randomization) • 3) Proportion of subjects achieving HbA1c<7% at each time point of weeks 6, 12, 18, and 24 after administration of clinical trial drug • 4) Proportion of subjects achieving HbA1c<6.5% at each time point of weeks 6, 12, 18, and 24 after administration of clinical trial drug • 5) Proportion of subjects achieving therapeutic response (HbA1c change (HbA1c at Visit 2—HbA1c at each evaluation time point)>0.5% or HbA1c<7% at each evaluation time point compared to Visit 2 (randomization)) at each time point of weeks 6, 12, 18, and 24 after administration of clinical trial drug • 6) Proportion of subjects achieving therapeutic response (HbA1c change (HbA1c at Visit 2—HbA1c at each evaluation time point)>0.7% or HbA1c<7% at each evaluation time point compared to Visit 2 (randomization)) at each time point of weeks 6, 12, 18, and 24 after administration of clinical trial drug • 7) Proportion of subjects achieving therapeutic response (HbA1c change (HbA1c at Visit 2—HbA1c at each evaluation time point)>1% or HbA1c<7% at each evaluation time point compared to Visit 2 (randomization)) at each time point of weeks 6, 12, 18, and 24 after administration of clinical trial drug

[1] = modified per-protocol set 2, enavogliflozin 0.3 mg, dapagliflozin 10 mg
[2] = per-protocol set, enavogliflozin 0.3 mg vs dapagliflozin 10 mg
[3] = per-protocol set, enavogliflozin 0.3 mg, dapagliflozin 10 mg

OC[C@H]1O[C@@H](c2cc(Cc3ccc(C4CC4)cc3)c(Cl)c3c2CCO3)[C@H](O)[C@@H](O)[C@@H]1O [Enavogliflozin, (2S,3R,4R,5S,6R)-2-(7-chloro-6 (4-cyclopropylbenzyl)-2,3-dihydrobenzofuran-4-yl)-6-(hydroxymethyl)tetrahydro-2H-pyran-3,4,5-triol]
Change from baseline in diastolic blood pressure, ANCOVA LS mean (modified per-protocol set 2): −2.04 mmHg
Change from baseline in diastolic blood pressure, LS mean difference (enavogliflozin − dapagliflozin) (modified per-protocol set 2): −0.16 mmHg
Change from baseline in diastolic blood pressure, Mean (modified per-protocol set 2): −2.76 mmHg
Change from baseline in diastolic blood pressure, Median (modified per-protocol set 2): −3.00 mmHg
Diastolic blood pressure, Mean (modified per-protocol set 2): 73.72 mmHg
Diastolic blood pressure, Median (modified per-protocol set 2): 74.00 mmHg
Change from baseline in systolic blood pressure, ANCOVA LS mean difference (modified per-protocol set 2, enavogliflozin 0.3 mg vs dapagliflozin 10 mg): 0.73 mmHg
Change from baseline in systolic blood pressure, ANCOVA LS mean [1]: −2.76 mmHg
Change from baseline in systolic blood pressure, Mean [1]: −3.67 mmHg
Change from baseline in systolic blood pressure, Median [1]: −3.00 mmHg
Systolic blood pressure, Mean [1]: 124.04 mmHg
Systolic blood pressure, Median [1]: 123.00 mmHg
Adiponectin, Mean (per-protocol set): 6.20 µg/mL
Adiponectin, Median (per-protocol set): 5.40 µg/mL
Change from baseline in HOMA-IR, ANCOVA LS mean (per-protocol set): −0.94
Change from baseline in HOMA-IR, LS mean difference (enavogliflozin − dapagliflozin) (per-protocol set): 0.05
Change from baseline in HOMA-IR, Mean (per-protocol set): −0.90
Change from baseline in HOMA-IR, Median (per-protocol set): −0.68
Change from baseline in HOMA-β, ANCOVA LS mean (per-protocol set): 8.13
Change from baseline in HOMA-β, LS mean difference (enavogliflozin − dapagliflozin) (per-protocol set): 4.93
Change from baseline in HOMA-β, Mean (per-protocol set): 8.74
Change from baseline in HOMA-β, Median (per-protocol set): 4.35
Change from baseline in UACR, ANCOVA LS mean (per-protocol set): -8.76 g/kg
Change from baseline in UACR, LS mean difference (enavogliflozin − dapagliflozin) (per-protocol set): 6.09 g/kg
Change from baseline in UACR, Mean (per-protocol set): -11.43 g/kg
Change from baseline in UACR, Median (per-protocol set): -0.50 g/kg
Change from baseline in UGCR, ANCOVA LS mean (per-protocol set): 58.10 mg/mg
Change from baseline in UGCR, LS mean difference (enavogliflozin − dapagliflozin) (per-protocol set): 12.35 mg/mg
Change from baseline in UGCR, Mean (per-protocol set): 56.38 mg/mg
Change from baseline in UGCR, Median (per-protocol set): 54.10 mg/mg
Change from baseline in adiponectin, ANCOVA LS mean (per-protocol set): -0.10 µg/mL
Change from baseline in adiponectin, LS mean difference (enavogliflozin − dapagliflozin) (per-protocol set): -0.47 µg/mL
Change from baseline in adiponectin, Mean (per-protocol set): -0.08 µg/mL
Change from baseline in adiponectin, Median (per-protocol set): 0.50 µg/mL
Change from baseline in leptin, ANCOVA LS mean (per-protocol set): -1.83 ng/mL
Change from baseline in leptin, LS mean difference (enavogliflozin − dapagliflozin) (per-protocol set): 0.20 ng/mL
Change from baseline in leptin, Mean (per-protocol set): -1.75 ng/mL
Change from baseline in leptin, Median (per-protocol set): -0.94 ng/mL
HOMA-IR (insulin resistance), Mean (per-protocol set): 2.00
HOMA-IR (insulin resistance), Median (per-protocol set): 1.54
HOMA-β (beta-cell function), Mean (per-protocol set): 51.08
HOMA-β (beta-cell function), Median (per-protocol set): 38.70
Leptin, Mean (per-protocol set): 8.88 ng/mL
Leptin, Median (per-protocol set): 6.26 ng/mL
UACR, Mean (per-protocol set): 36.67 g/kg
UACR, Median (per-protocol set): 14.80 g/kg
UGCR, Mean (per-protocol set): 57.09 mg/mg
UGCR, Median (per-protocol set): 54.57 mg/mg
Achieving HbA1c target of <6.5%, odds ratio (logistic regression model) [2]: 0.65
Achieving HbA1c target of <7%, odds ratio (logistic regression model) [2]: 1.22
Change from baseline in FPG, ANCOVA LS mean difference [2]: -3.24 mg/dL
Change from baseline in HbA1c, ANCOVA LS mean difference [2]: −0.03 % p
Change from baseline in body weight, ANCOVA LS mean difference [2]: -0.13 kg
Change from baseline in fasting C-peptide, ANCOVA LS mean difference [2]: -0.01 ng/mL
Therapeutic glycemic response 1, odds ratio (logistic regression model) [2]: 1.52
Therapeutic glycemic response 2, odds ratio (logistic regression model) [2]: 1.16
Therapeutic glycemic response 3, odds ratio (logistic regression model) [2]: 1.38
Body weight, Mean [3]: 67.13 kg
Change from baseline in FPG, ANCOVA LS mean [3]: -25.96 mg/dL
Change from baseline in FPG, Mean [3]: -25.72 mg/dL
Change from baseline in FPG, Median [3]: -24.50 mg/dL
Change from baseline in HbA1c, ANCOVA LS mean [3]: −0.73 % p
Change from baseline in HbA1c, Mean [3]: −0.74 % p
Change from baseline in HbA1c, Median [3]: −0.65 % p
Change from baseline in body weight, ANCOVA LS mean [3]: -1.92 kg
Change from baseline in body weight, Mean [3]: -1.87 kg
Change from baseline in body weight, Median [3]: -1.90 kg
Change from baseline in fasting C-peptide, ANCOVA LS mean [3]: -0.05 ng/mL
Change from baseline in fasting C-peptide, Mean [3]: -0.06 ng/mL
Change from baseline in fasting C-peptide, Median [3]: -0.07 ng/mL
FPG, Mean [3]: 114.21 mg/dL
FPG, Median [3]: 113.00 mg/dL
